In ChEMBL document CHEMBL1150213, “Protein-tyrosine kinase inhibition: mechanism-based discovery of antitumor agents” (J Nat Prod, 1992):

Biological target: T1, Epidermal growth factor receptor (Homo sapiens, UniProt P00533)
T1 sequence (P00533 whole entry): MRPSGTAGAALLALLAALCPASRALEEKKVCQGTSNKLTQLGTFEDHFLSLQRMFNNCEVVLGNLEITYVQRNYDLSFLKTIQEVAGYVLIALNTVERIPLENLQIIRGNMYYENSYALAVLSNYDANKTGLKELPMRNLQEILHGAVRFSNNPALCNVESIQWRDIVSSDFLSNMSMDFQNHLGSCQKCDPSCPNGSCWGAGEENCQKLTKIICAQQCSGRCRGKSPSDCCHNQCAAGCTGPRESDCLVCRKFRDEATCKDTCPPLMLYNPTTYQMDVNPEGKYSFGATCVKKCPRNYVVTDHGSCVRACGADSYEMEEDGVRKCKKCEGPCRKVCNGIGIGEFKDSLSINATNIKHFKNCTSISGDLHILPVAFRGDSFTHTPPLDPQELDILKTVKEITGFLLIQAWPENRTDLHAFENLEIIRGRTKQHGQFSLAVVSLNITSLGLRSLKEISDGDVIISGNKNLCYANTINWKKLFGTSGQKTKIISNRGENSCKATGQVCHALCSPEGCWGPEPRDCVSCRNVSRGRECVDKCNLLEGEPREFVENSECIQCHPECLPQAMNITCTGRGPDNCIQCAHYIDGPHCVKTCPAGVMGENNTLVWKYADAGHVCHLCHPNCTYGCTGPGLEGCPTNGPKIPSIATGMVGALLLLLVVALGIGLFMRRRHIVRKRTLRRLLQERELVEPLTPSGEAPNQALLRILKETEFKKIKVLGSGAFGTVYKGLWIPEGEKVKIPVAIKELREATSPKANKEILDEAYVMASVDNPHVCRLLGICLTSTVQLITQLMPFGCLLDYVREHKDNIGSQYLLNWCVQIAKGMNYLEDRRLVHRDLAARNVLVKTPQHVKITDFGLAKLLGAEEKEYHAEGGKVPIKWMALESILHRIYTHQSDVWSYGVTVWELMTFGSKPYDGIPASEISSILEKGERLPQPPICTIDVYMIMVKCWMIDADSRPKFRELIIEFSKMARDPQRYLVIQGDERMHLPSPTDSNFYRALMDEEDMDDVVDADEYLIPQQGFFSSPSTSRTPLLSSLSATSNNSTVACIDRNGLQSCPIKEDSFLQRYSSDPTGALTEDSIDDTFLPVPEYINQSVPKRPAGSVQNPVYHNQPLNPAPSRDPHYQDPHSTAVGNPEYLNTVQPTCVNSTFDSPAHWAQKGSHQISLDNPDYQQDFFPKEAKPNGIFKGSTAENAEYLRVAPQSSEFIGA
Description: Inhibition of EGFR in human A431 cells

Structure (SMILES) | IC50 [µM]
O=c1cc(-c2ccc(O)cc2)oc2cc(O)cc(O)c12 [APIGENIN] | 111

Biological target: Tyrosine-protein kinase Lck (Homo sapiens, UniProt P06239)
Sequence (P06239 whole entry): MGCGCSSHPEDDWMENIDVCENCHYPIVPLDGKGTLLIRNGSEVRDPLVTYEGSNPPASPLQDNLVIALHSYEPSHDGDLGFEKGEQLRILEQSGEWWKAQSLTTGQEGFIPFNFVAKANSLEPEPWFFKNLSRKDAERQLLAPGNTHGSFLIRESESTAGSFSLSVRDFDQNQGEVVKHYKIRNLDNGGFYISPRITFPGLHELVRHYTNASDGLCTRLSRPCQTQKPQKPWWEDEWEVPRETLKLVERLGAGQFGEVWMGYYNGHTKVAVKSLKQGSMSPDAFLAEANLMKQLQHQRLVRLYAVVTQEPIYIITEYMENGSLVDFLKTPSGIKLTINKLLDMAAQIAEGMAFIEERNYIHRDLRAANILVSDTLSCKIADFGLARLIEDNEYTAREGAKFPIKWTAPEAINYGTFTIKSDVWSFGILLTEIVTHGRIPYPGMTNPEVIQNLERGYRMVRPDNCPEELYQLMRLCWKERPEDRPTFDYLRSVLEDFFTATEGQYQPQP

Structure (SMILES) | IC50 [µM]
COc1cc(-c2oc3cc(O)cc(O)c3c(=O)c2O)cc(OC)c1O [SYRINGETIN] | 57.8
COc1ccc2oc(-c3cc(OC)c(OC)c(OC)c3)cc(=O)c2c1 | > 2340
Cc1cc(O)c2c(c1)C(=O)c1cc(O[C@@H]3O[C@H](CO)[C@@H](O)[C@H](O)[C@H]3O)cc(O)c1C2=O | > 1850
O=c1cc(-c2ccc(O)c(O)c2)oc2cc(O)cc(O)c12 [LUTEOLIN] | 34.9
COc1cc(-c2cc(=O)c3ccc(OC)c(OC)c3o2)cc(OC)c1OC | > 2150
COc1cc(-c2cc(=O)c3ccc(OC(C)=O)cc3o2)cc(OC)c1O[Si](C)(C)C(C)(C)C | > 1700
O=c1c(O)c(-c2cc(O)cc(O)c2)oc2cc(O)cc(O)c12 | 99.3
O=c1c(O)c(-c2ccc(O)c(O)c2)oc2cc(O)cc(O)c12 [QUERCETIN] | 132
O=c1cc(-c2ccc(O)cc2)oc2cc(O)cc(O)c12 [APIGENIN] | 14.8
COc1cc(-c2cc(=O)c3ccc(OC(C)=O)c(OC(C)=O)c3o2)cc(OC)c1O[Si](C)(C)C(C)(C)C | > 1510
COc1cc(-c2cc(=O)c3ccc(O)c(O)c3o2)cc(OC)c1O[Si](C)(C)C(C)(C)C | > 1800

The remaining lines, values ahead:

IC50 [µM] | Structure (SMILES)
200 | COc1ccc(/C=C/c2cccnc2)cc1OC
290 | COc1cc(-c2cc(=O)c3ccc(O)c(O)c3o2)cc(OC)c1OC
> 2250 | COc1cc(-c2cc(=O)c3ccc(OC(C)=O)cc3o2)cc(OC)c1O
121 | COc1cc(-c2cc(=O)c3ccc(O)c(O)c3o2)cc(OC)c1O
1270 | COc1cc(-c2cc(=O)c3ccc(O)cc3o2)cc(OC)c1O
109 | CC(C)(C)[Si](C)(C)Oc1ccc(-c2cc(=O)c3cc(O)ccc3o2)cc1
163 | COc1cc(-c2cc(=O)c3ccc(O)cc3o2)cc(OC)c1O[Si](C)(C)C(C)(C)C
127 | COc1cc(-c2cc(=O)c3cc(O)ccc3o2)cc(OC)c1O
> 2440 | COc1cc(-c2cc(=O)c3ccc(O)cc3o2)cc(OC)c1OC
60.9 | COc1cc(-c2cc(=O)c3cc(O)ccc3o2)cc(OC)c1OC
315 | O=c1cc(-c2ccccc2)oc2c(O)c(O)ccc12 [7,8-DIHYDROXYFLAVONE]
26.8 | COc1cc(-c2cc(=O)c3ccccc3o2)cc(OC)c1O
787 | O=c1cc(-c2ccc(O)cc2)oc2cc(O)ccc12
2030 | O=c1cc(-c2ccc(OCc3ccccc3)cc2)oc2cc(O)ccc12
315 | O=c1cc(-c2cccc(O)c2)oc2cccc(O)c12
70 | COc1ccc(/C=N/Nc2ccccc2)cc1OC

IC50 [µM] | Structure (SMILES)
11.8 | O=c1cc(-c2ccc(O)cc2)oc2ccc(O)cc12
> 3570 | O=C1c2ccccc2C(=O)c2c(O)cccc21 [1-HYDROXYANTHRAQUINONE]
185 | O=c1cc(-c2cccc(O)c2)oc2c(O)c(O)ccc12
> 3000 | CC(=O)Oc1ccc2c(c1)C(=O)c1ccccc1C2=O
15.7 | O=c1cc(-c2ccc(O)cc2)oc2cccc(O)c12
> 2340 | COc1ccc2c(=O)cc(-c3cc(OC)c(OC)c(OC)c3)oc2c1
19.7 | O=c1cc(-c2ccccc2)oc2cc(O)cc(O)c12 [CHRYSIN]
336 | O=c1cc(-c2ccccc2)oc2cc(O)ccc12 [7-HYDROXYFLAVONE]
296 | O=c1c(O)c(-c2ccccc2)oc2cc(O)cc(O)c12 [GALANGIN]
39.3 | O=c1cc(-c2cccc(O)c2)oc2cc(O)ccc12
467 | COc1cc(-c2cc(=O)c3cc(O)ccc3o2)cc(OC)c1O[Si](C)(C)C(C)(C)C
1 | Nc1ccc(-c2cc(=O)c3cc(O)ccc3o2)cc1
> 2320 | O=c1cc(-c2ccc(OCc3ccccc3)cc2)oc2cccc(O)c12
281 | COc1cc(O)c2c(=O)cc(-c3ccc(O)cc3)oc2c1 [GENKWANIN]
157 | O=c1cc(-c2cccc(O)c2)oc2ccc(O)cc12

Biological target: T2, Tyrosine-protein kinase transforming protein Abl (Abelson murine leukemia virus, UniProt P00521)
T2 sequence (P00521 whole entry): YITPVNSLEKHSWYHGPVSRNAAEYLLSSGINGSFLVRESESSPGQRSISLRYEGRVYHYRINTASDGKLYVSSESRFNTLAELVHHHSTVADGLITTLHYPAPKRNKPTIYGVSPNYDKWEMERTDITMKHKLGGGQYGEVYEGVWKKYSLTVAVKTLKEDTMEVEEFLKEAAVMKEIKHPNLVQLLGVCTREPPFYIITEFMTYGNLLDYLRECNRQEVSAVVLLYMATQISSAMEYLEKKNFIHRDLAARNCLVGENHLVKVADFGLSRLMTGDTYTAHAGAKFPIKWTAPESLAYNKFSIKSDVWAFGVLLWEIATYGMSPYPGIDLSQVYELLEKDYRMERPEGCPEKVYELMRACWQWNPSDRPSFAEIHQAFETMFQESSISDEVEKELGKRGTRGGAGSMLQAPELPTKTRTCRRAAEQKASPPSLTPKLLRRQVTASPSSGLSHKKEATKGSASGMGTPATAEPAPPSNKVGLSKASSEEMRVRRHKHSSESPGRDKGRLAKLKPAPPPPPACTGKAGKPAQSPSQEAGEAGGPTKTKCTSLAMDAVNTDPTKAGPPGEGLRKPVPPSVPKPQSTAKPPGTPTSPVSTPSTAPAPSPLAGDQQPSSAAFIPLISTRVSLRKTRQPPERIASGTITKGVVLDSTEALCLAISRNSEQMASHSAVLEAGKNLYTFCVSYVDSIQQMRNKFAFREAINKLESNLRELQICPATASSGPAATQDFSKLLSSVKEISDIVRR
Description: Inhibition of Abelson murine leukemia virus p60 v-abl

IC50 [µM] | Structure (SMILES)
40 | C[C@H](NC(=O)[C@H](C)NC(=O)c1ccc(S(=O)(=O)Oc2ccc(/C=C/[N+](=O)[O-])cc2)cc1)C(=O)O
60 | Nc1ncnc2c1ncn2[C@@H]1O[C@H](COC(=O)c2ccc(S(=O)(=O)NCCCc3ccccc3)cc2)[C@@H](O)[C@H]1O
200 | Cc1ccc(NP(=O)(O)OP(=O)(O)OP(=O)(O)OC[C@H]2O[C@@H](n3cnc4c(N)ncnc43)[C@H](O)[C@@H]2O)cc1
200 | Nc1ncnc2c1ncn2[C@@H]1O[C@H](COC(=O)c2ccc(S(=O)(=O)Oc3ccccc3)cc2)[C@@H](O)[C@H]1O
100 | C[C@H](NC(=O)c1ccc(S(=O)(=O)Oc2ccc(/C=C/[N+](=O)[O-])cc2)cc1)C(=O)N[C@@H](C)C(=O)OC(C)(C)C
20 | Cc1ccc(NP(=O)(O)OP(=O)(O)OP(=O)(O)OP(=O)(O)OC[C@H]2O[C@@H](n3cnc4c(N)ncnc43)[C@H](O)[C@@H]2O)cc1
100 | COc1cc(/C=C/[N+](=O)[O-])ccc1OS(=O)(=O)c1ccc(C(=O)OC[C@H]2O[C@@H](n3cnc4c(N)ncnc43)[C@H](O)[C@@H]2O)cc1

Biological target: T1, Epidermal growth factor receptor
Remark: another data set of the same source

Structure (SMILES) | IC50 [µM] | Ki [µM]
CCOC(=O)CSCc1oc2cc(O)cc(O)c2c(=O)c1-c1ccc(O)cc1 | 9.94 | 
N#CC(C#N)=C1C(=O)Nc2cc(O)c(O)cc21 | 3 | 
NC(=O)c1oc2cc(O)cc(O)c2c(=O)c1-c1ccc(O)cc1 | 31.9 | 
O=c1c(-c2ccc(O)cc2)c(CSC2=NCCS2)oc2cc(O)cc(O)c12 | 12.5 | 
COC(=O)/C=C/c1cc(O)ccc1O | 103 | 
CC(C)C[C@H](NC(=O)[C@H](CCCNC(=N)N)NC(=O)[C@@H](N)CCCNC(=N)N)C(=O)N[C@@H](CCC(=O)O)C(=O)N[C@@H](CCC(=O)O)C(=O)N[C@@H](CCC(=O)O)C(=O)N[C@@H](CCC(=O)O)C(=O)N[C@@H](CCC(=O)O)C(=O)N[C@@H](C)C(=O)N[C@@H](Cc1c(F)c(F)c(O)c(F)c1F)C(=O)NCC(=O)O (stereo in doubt; 187D) |  | 20
O=C(O)/C=C/c1cc(O)ccc1O | 44.4 | 
O=CN/C=C/c1cc(Br)ccc1O | > 24.8 | 
N#CC(C#N)=C1C(=O)Nc2ccc(O)cc21 | 10 | 
O=CN/C=C/c1ccc(O)cc1O | > 167 | 
O=CN/C=C/c1ccc(O)c(O)c1 | 5.58 | 
COC(=O)c1oc2cc(O)cc(O)c2c(=O)c1-c1ccc(O)cc1 | 6.09 | 
O=CN/C=C/c1ccc(O)cc1 | > 61.3 | 
CC(C)OC(=O)c1oc2cc(O)cc(O)c2c(=O)c1-c1ccc(O)cc1 | 28.1 | 
CSCc1oc2cc(O)cc(O)c2c(=O)c1-c1ccc(O)cc1 | 15.1 | 
CC(C)(C)c1cc(/C=C(\C#N)C(N)=O)cc(C(C)(C)C)c1O | 50 | 
CC(=O)N/C=C/c1cc(O)ccc1O | 15.5 | 
CC(C)c1cc(/C=C(\C#N)C(N)=O)cc(C(C)C)c1O | 1 | 
O=CN/C=C/c1ccc(O)c(O)c1O | 4.61 | 
O=c1c(-c2ccc(O)cc2)c(CN2CCCCC2)oc2cc(O)cc(O)c12 | 27.2 | 
CC(C)C[C@H](NC(=O)[C@H](CCCNC(=N)N)NC(=O)[C@@H](N)CCCNC(=N)N)C(=O)N[C@@H](CCC(=O)O)C(=O)N[C@@H](CCC(=O)O)C(=O)N[C@@H](CCC(=O)O)C(=O)N[C@@H](CCC(=O)O)C(=O)N[C@@H](CCC(=O)O)C(=O)N[C@@H](C)C(=O)N[C@@H](Cc1c(F)c(F)c(O)c(F)c1F)C(=O)NCC(=O)O (stereo in doubt; 187L) |  | 4

Second part, the molecule after the results:

IC50 [µM] | Ki [µM] | Structure (SMILES)
0.4 |  | CC(C)c1cc(/C=C2\C(=O)Nc3ccccc32)cc(C(C)C)c1O
> 61.3 |  | O=CN/C=C/c1cccc(O)c1
3 |  | CCOc1cc(/C=C(\C#N)C(N)=O)cc(CSc2ccc(O)cc2)c1O
> 31.1 |  | COc1ccc(O)c(/C=C/NC=O)c1
0.9 |  | CCOc1cc(/C=C2/CCNC2=O)cc(CSc2ccccc2)c1O
0.4 |  | CCOc1cc(/C=C(\C#N)C(N)=O)cc(CSc2ccccc2)c1O
1.67 |  | O=CN/C=C/c1cccc(O)c1O
1 |  | CCOC(=O)C(=O)Oc1ccc(-c2c(C(=O)OCC)oc3cc(O)cc(O)c3c2=O)cc1
> 613 |  | O=CN/C=C/c1ccccc1O
7.04 |  | Cc1oc2cc(O)cc(O)c2c(=O)c1-c1ccc(O)cc1
52 |  | O=c1c(-c2ccc(O)cc2)c(CNC2=NCCS2)oc2cc(O)cc(O)c12
0.6 |  | N#C/C(=C/c1cc(Cc2ccccc2)c(O)c(Cc2ccccc2)c1)C(N)=O
0.4 |  | N#C/C(=C\c1cc(-c2ccccc2)c(O)c(-c2ccccc2)c1)C(N)=O
5.84 |  | CCOC(=O)c1oc2cc(O)cc(O)c2c(=O)c1-c1ccc(O)cc1
0.5 |  | COc1cc(/C=C(\C#N)C(N)=O)cc(CSc2ccccc2)c1O
6.36 |  | O=C(O)c1oc2cc(O)cc(O)c2c(=O)c1-c1ccc(O)cc1
20 |  | CCOc1cc(/C=C(\C#N)C(N)=O)cc(CSc2ccc(C)cc2)c1O
0.4 |  | CSCc1cc(/C=C2\C(=O)Nc3ccccc32)cc(CSC)c1O
0.8 |  | N#C/C(=C\c1cc(CSc2ccccc2)c(O)c(OCc2ccccc2)c1)C(N)=O
